In patent publication US20180209966A1, “FLUORESCENCE POLARIZATION IMMUNOASSAY METHOD FOR DETECTING CARBARYL” (priority 2017, published 2018):

Columns and labels:
Assay type in all cases: binding, BALB/c mice
[1] = test system: anti-carbaryl monoclonal antibody secreted by the hybridoma cell line Jnw1D2; assay: indirect competitive ELISA characterisation of the anti-carbaryl monoclonal antibody (IC50, cross reaction); conditions: with anti-carbaryl monoclonal antibody
Excerpt: 2-3 weeks after cell fusion, when the cell colonies grew up to be visually visible, the clones were picked out from the culture medium with a micropipette, transferred to a 96-well cell culture plate and cultured in HAT liquid. When the cells grew to cover ⅔ of the bottom of the well, the culture supernatant was aspirated for testing. A two-step screening method was adopted. In the first step, indirect ELISA method was used to screen out the positive wells against carbaryl, but not the carrier protein BSA. In the second step, indirect competitive ELISA method was used for testing the positive wells screened out in the first step with carbaryl as a competitor. Wells with high absorbance and sensitivity were chosen (where the high absorbance means a high final value determined in the well where the competitor is 0, i.e., the positive control well, and the high sensitivity means a low concentration, i.e. the IC50, of the competitor achieving 50% inhibition). The cells were subcloned by limiting dilution analysis, and then detected by the two-step method as described above. After 4-5 rounds of repeated subcloning, a hybridoma cell line Jnw1D2 was obtained, which was deposited in China Center for Type Culture Collection (CCTCC) (Wuhan University, Wuhan, China) under the CCTCC Accession No: C201654.
The subtype of the anti-carbaryl monoclonal antibody secreted by the hybridoma cell line Jnw1D2 was identified as IgG2b by using a commercial subtype identification kit. The titer of the antibody was 1.6×10^4 measured by enzyme-linked immunosorbent assay (ELISA).

[2] = test system: anti-carbaryl monoclonal antibody; assay: competitive FPIA carbaryl standard curve in borate buffer solution; conditions: 10% methanol, 10 min
Protocol: Step 2: First, the working concentration of each fluorescent marker was set to a corresponding fluorescent marker concentration (5 nM) when the fluorescence intensity was 10 times of the background fluorescence intensity of the BB solution (borate buffer solution). With a corresponding antibody dilution factor when 70% of the anti-carbaryl monoclonal antibody binds to the fluorescent marker (1 μg/mL), the carbaryl detection standard curve of different markers was established and the IC50 was calculated. The optimum fluorescent marker was decided based on the IC50 value of each standard curve. […]
9 concentration gradients of carbaryl standards of 100 μg/mL, 10 μg/mL, 1 μg/mL, 0.5 μg/mL, 0.1 μg/mL, 0.05 μg/mL, 0.01 μg/mL, 0.005 μg/mL and 0.001 μg/mL were formulated with 10% methanol in a borate buffer solution, and each 50 μL of the carbaryl standards, 500 μL fluorescent marker of working concentration (5 nM), and 500 μL anti-carbaryl monoclonal antibody of the working concentration (1 μg/mL) were added to a reaction tube, and incubated at room temperature in the dark for 10 min. Then the fluorescence polarization value was measured at an excitation wavelength of 485 nm and an emission wavelength of 530 nm, with a cutoff of 515 nm. […]

[3] = test system: anti-carbaryl monoclonal antibody; assay: competitive FPIA carbaryl standard curve in strawberry sample matrix; conditions: 25° C., 5 min
Protocol: Step 1: 20.0 g of the blank strawberry sample (which was determined to be carbaryl free by LC) was weighed and added to 20.0 mL acetonitrile, homogenized for 2 min at a high speed, filtered into a 50 mL centrifuge tube containing 4 g of sodium chloride, shaken vigorously for 3 min, and centrifuged at 5000 g for 2 min. 10 mL of the supernatant extract was aspirated to a beaker, heated in a water bath at 80° C., and evaporated to almost dryness while nitrogen was introduced into the beaker. 10 mL of methanol was added to dissolve the sample residue, to obtain a sample matrix solution. 9 concentration gradients of carbaryl standards of 100 μg/mL, 10 μg/mL, 1μg/mL, 0.5 μg/mL, 0.1 μg/mL, 0.05 μg/mL, 0.01 μg/mL, 0.005 μg/mL and 0.001 μg/mL were formulated with the sample matrix solution. Each 50 μL of the carbaryl standard solution in the sample matrix solution, 500 μL fluorescent marker solution and 500 μL anti-carbaryl monoclonal antibody solution were added and incubated at 25° C. for 5 min. Then FPIA detection was conducted. According to the correlation between the fluorescence polarization signal and the concentration of the carbaryl standard, a standard curve for carbaryl detection in the strawberry sample was obtained, as shown in FIG. 2. The detection sensitivity of carbaryl in the strawberry matrix is 108.6 μg/kg and the detection range is 32.4-363.6 μg/kg. […]

SMILES: CNC(=O)O/N=C/C(C)(C)SC [aldicarb]
- cross reaction [1]: no cross reaction

SMILES: CNC(=O)Oc1cccc2ccccc12 [carbaryl]
- sensitivity of the standard curve [2]: 82.3 ng/mL
- detection sensitivity [3]: 108.6 µg/kg

SMILES: CNC(=O)Oc1cccc2c1OC(C)(C)C2 [carbofuran]
- cross reaction [1]: no cross reaction

SMILES: CNC(=O)ON=C(C)SC [methomyl]
- cross reaction [1]: no cross reaction
